Results on 74 compounds are retold here after US20210317099A1, “SAFER, POTENT, AND FAST ACTING ANTIMICROBIAL AGENTS” (Purdue Research Foundation, priority 2020, published 2021).

In brackets after ≈: the same amount, converted by molar mass.

In one experiment the test system is Staphylococcus aureus NRS384 (MRSA USA300). Nature of the experiment: Initial MIC screening, broth microdilution (CLSI). Format: cell-based. The conditions noted are these: MRSA USA300, Table 1 assay. The procedure:
Method: The minimum inhibitory concentration (MIC) of the compounds 1-187, and control antibiotics (vancomycin, linezolid) was determined using the broth microdilution method against methicillin-resistant Staphylococcus aureus (MRSA) USA 300 using the broth microdilution method according to the guidelines outlined by the Clinical and Laboratory Standards Institute (CLSI). MRSA strain was cultivated on Tryptic soy agar plates and let grow for 24 hours at 37° C. under aerobic conditions. Bacterial suspension equivalent to 0.5 McFarland standard was prepared and diluted in cation-adjusted Mueller-Hinton broth (CAMHB) to attain a bacterial concentration of 5×10^5 CFU/ml and seeded in 96-well plates. The desired concentrations of each drug and compound were added in the first row of the 96-well plates and serially diluted to achieve a concentration gradient from 64 μg/ml to 0.5 μg/mL.
(In broth dilution the organism is exposed to a series of concentrations in liquid medium.)
As to `O=C1O[C@H](c2ccc3ccccc3c2)[C@H](c2ccc3ccccc3c2)C1CN1CCCCC1` (stereo partly drawn) [Compound 167], the “potency compared with control antibiotic” value is on record as “potency comparable to vancomycin”.

Staying with this experiment, now noted: Staphylococcus aureus NRS384 (MRSA USA300), broth microdilution, visual reading.
Compound `C=C1C(=O)O[C@H](c2ccccc2)[C@@H]1c1ccc2ccccc2c1` [Compound 107] registered an MIC of 8 mg/L (≈ 26.6 µM).
Compound `C=C1C(=O)O[C@H](c2ccc3ccccc3c2)[C@@H]1c1ccccc1` [Compound 21] registered an MIC of 32 mg/L (≈ 107 µM).

Still in this experiment, the particulars now being: Staphylococcus aureus, Staphylococcus aureus NRS384 (MRSA USA300), broth microdilution, visual reading; read-out: MIC.
For `C=C1C(=O)O[C@H](c2ccc(OC)cc2)[C@@H]1c1ccc(OC)cc1` [Compound 66], the MIC was determined as 32 mg/L (≈ 103 µM).
Same read-out and setting: the same measure for `C=C1C(=O)O[C@H](c2ccc(C)cc2)[C@@H]1c1ccc(C)cc1` [Compound 67]: 64 mg/L (≈ 230 µM); for `C=C1C(=O)O[C@H](CCCCCCCC)[C@@H]1/C=C/c1ccccc1` [Compound 51]: more than 128 mg/L.
Same read-out and setting: with `CCN(CC)CC1C(=O)O[C@H](c2ccc3ccccc3c2)[C@H]1c1ccccc1` (stereo partly drawn) [Compound 95] the figure was more than 128 mg/L; with `C=C1C(=O)O[C@H](c2c(OC)cc(OC)cc2OC)[C@@H]1c1ccc(C#N)cc1` [Compound 44], more than 128 mg/L; with `C[C@@]1(c2ccccc2)CC(CN2CCCCC2)C(=O)O1` (stereo partly drawn) [Compound 33], more than 128 mg/L.
Still for that read-out and setting: the same measure for `C=C1C(=O)O[C@H](c2ccccc2Br)[C@@H]1c1ccc(C#N)cc1` [Compound 12]: 4 mg/L (≈ 11.3 µM); for `C=C1C(=O)O[C@H](CCO[Si](c2ccccc2)(c2ccccc2)C(C)(C)C)[C@@H]1c1ccc(C)cc1` [Compound 52]: more than 128 mg/L; for `C=C(C(=O)OC)C(c1cccc2ccccc12)C(O)c1cccc2ccccc12` (stereo not drawn) [Compound 145]: more than 64 mg/L.
In the case of `C=C1C(=O)O[C@H](c2ccc(OCc3ccccc3)c(OC)c2)[C@@H]1c1ccccc1Br` [Compound 85], the MIC was more than 128 mg/L.
On the same count and under the same terms, the same measure for `C=C1C(=O)O[C@H](c2ccccc2)[C@@H]1c1ccc(C#N)cc1` [Compound 69]: more than 128 mg/L; for `C=C1C(=O)O[C@H](c2ccc(O)cc2)[C@@H]1c1cccc(C#N)c1` [Compound 43]: 128 mg/L (≈ 439 µM).
Same read-out and setting: with `O=C1OCCC1CN1CCCCC1` (stereo not drawn) [Compound 34] the figure was more than 128 mg/L.
For the compound `C=C1C(=O)O[C@H](c2ccc(OC)cc2)[C@@H]1c1ccc(C#N)cc1` [Compound 70], the MIC was determined as 32 mg/L (≈ 105 µM).
The same measure, in the same setting: with `C=C1C(=O)O[C@H](c2ccccc2)[C@H]1c1ccc2ccccc2c1` [Compound 115] the figure was 2 mg/L (≈ 6.66 µM); with `C=C(C(=O)OC)C(c1ccccc1)C(O)c1ccccc1` (stereo not drawn) [Compound 141], 16 mg/L (≈ 56.7 µM); with `O=C1O[C@H](c2ccccc2)CC1CN1CCCCC1` (stereo partly drawn) [Compound 32], more than 128 mg/L.
On the same count and under the same terms, with `Cc1ccc([C@@H]2[C@H](CN(C)C)C(=O)O[C@@H]2c2ccc(C)cc2)cc1` [Compound 6] the figure was 32 mg/L (≈ 98.9 µM); with `O=C1OC[C@H](/C=C/c2ccccc2)[C@@H]1CN1CCCCC1` [Compound 46], more than 128 mg/L; with `C=C1C(=O)O[C@@H]2c3c(ccc4ccccc34)C(C)C[C@H]12` (stereo partly drawn) [Compound 94], 32 mg/L (≈ 121 µM).
Still for that read-out and setting: with `C=C(C(=O)OC)C(c1cccc2ccccc12)C(O)c1ccc2ccccc2c1` (stereo not drawn) [Compound 146] the figure was more than 64 mg/L.
With `C=C1C(=O)O[C@H](c2ccccc2OC)[C@@H]1c1ccccc1Br` [Compound 40], the MIC came to 16 mg/L (≈ 44.5 µM).
On the same count and under the same terms, with `COc1ccc([C@@H]2C(CN3CCCCC3)C(=O)O[C@@H]2c2ccc(C)cc2)cc1` (stereo partly drawn) [Compound 35] the figure was 64 mg/L (≈ 169 µM); with `C=C1C(=O)OC[C@@H]1c1ccccc1` [Compound 25], more than 128 mg/L; with `C=C1C(=O)O[C@H](c2ccc3ccccc3c2)[C@@H]1c1cccc2ccccc12` [Compound 157], more than 64 mg/L.
The same measure, in the same setting: the same measure for `O=C1OC(C2CCCCC2)[C@H](c2ccccc2)C1CN1CCCCC1` (stereo partly drawn) [Compound 182]: 32 mg/L (≈ 93.7 µM).
Still for that read-out and setting: the same measure for `C=C(C(=O)OC)C(c1ccc2ccccc2c1)C(O)c1ccccc1` (stereo not drawn) [Compound 147]: 8 mg/L (≈ 24.1 µM).
As to `C=C1C(=O)O[C@H](c2ccccc2)[C@@H]1c1ccccc1Br` [Compound 53], the MIC stood at 4 mg/L (≈ 12.2 µM).
Same read-out and setting: with `CCN(CC)CC1C(=O)O[C@H](c2ccc3ccccc3c2)[C@@H]1c1ccccc1` (stereo partly drawn) [Compound 96] the figure was more than 128 mg/L.
The same measure, in the same setting: with `CN(C)CC1C(=O)O[C@H](c2ccccc2)[C@H]1c1ccccc1` (stereo partly drawn) [Compound 11] the figure was 32 mg/L (≈ 108 µM).
The same measure, in the same setting: the same measure for `CN(C)C[C@@H]1C(=O)O[C@H](c2ccccc2)[C@@H]1c1ccccc1` [Compound 5]: 16 mg/L (≈ 54.2 µM); for `C=C1C(=O)O[C@H](c2cc(OC)c(OC)c(OC)c2)[C@@H]1c1ccc(C#N)cc1` [Compound 54]: 128 mg/L (≈ 350 µM).
As to `C=C1C(=O)O[C@H](c2cccc(OC)c2)[C@@H]1c1ccc(C#N)cc1` [Compound 19], the MIC was 64 mg/L (≈ 210 µM).
On the same count and under the same terms, the same measure for `C=C1C(=O)O[C@H](c2ccc(OC)cc2)[C@@H]1c1ccccc1Br` [Compound 78]: 8 mg/L (≈ 22.3 µM); for `C=C1C(=O)O[C@H](c2ccnc3ccccc23)[C@@H]1c1ccccc1` [Compound 114]: 32 mg/L (≈ 106 µM).
The same measure, in the same setting: with `C=C1C(=O)O[C@H](c2cccc(OC)c2)[C@@H]1c1ccccc1Br` [Compound 55] the figure was 8 mg/L (≈ 22.3 µM); with `C=C1C(=O)O[C@H](c2ccccc2OC)[C@@H]1c1cccc(C#N)c1` [Compound 49], 16 mg/L (≈ 52.4 µM).
The same measure, in the same setting: the same measure for `C=C1C(=O)O[C@H](c2ccccc2O)[C@@H]1c1cccc(C#N)c1` [Compound 50]: more than 128 mg/L; for `C=C1C(=O)O[C@H](c2cccc(C#N)c2)[C@@H]1c1ccc(OC)cc1` [Compound 20]: 16 mg/L (≈ 52.4 µM); for `O=C1O[C@H](c2ccccc2)[C@H](c2ccccc2)C1CN1CCCCC1` (stereo partly drawn) [Compound 159]: 16 mg/L (≈ 47.7 µM).
For the compound `C=C1C(=O)O[C@H](c2c(OC)cc(OC)cc2OC)[C@@H]1c1ccc(C(F)(F)F)cc1` [Compound 61], the MIC was more than 128 mg/L.
On the same count and under the same terms, with `C=C1C(=O)O[C@H](c2ccccc2OC)[C@@H]1c1ccc(C#N)cc1` [Compound 42] the figure was 32 mg/L (≈ 105 µM).
Same read-out and setting: with `CCN(CC)CC1C(=O)O[C@H](c2ccccc2)[C@@H]1c1cccc2ccccc12` (stereo partly drawn) [Compound 173] the figure was 8 mg/L (≈ 21.4 µM).
Same read-out and setting: the same measure for `C=C1C(=O)O[C@H](c2ccccc2)[C@@H]1c1ccccc1` [Compound 103]: 32 mg/L (≈ 128 µM); for `COc1ccc([C@@H]2C(CN(C)C)C(=O)O[C@@H]2c2ccc(C)cc2)cc1` (stereo partly drawn) [Compound 86]: 128 mg/L (≈ 377 µM); for `O=C1O[C@H](c2ccccc2)[C@H](c2ccc3ccccc3c2)C1CN1CCCCC1` (stereo partly drawn) [Compound 161]: 16 mg/L (≈ 41.5 µM).
Regarding `O=C1OC[C@H](c2ccco2)C1CN1CCCCC1` (stereo partly drawn) [Compound 76], the MIC is more than 128 mg/L.
The same measure, in the same setting: with `O=C1OC2(CCCC2)CC1CN1CCCCC1` (stereo not drawn) [Compound 58] the figure was more than 128 mg/L; with `C=C1C(=O)O[C@H](c2ccc(N)cc2)[C@@H]1c1ccccc1` [Compound 22], 32 mg/L (≈ 121 µM).
As to `CCCCC[C@@H]1CC(CN2CCCCC2)C(=O)O1` (stereo partly drawn) [Compound 26], the MIC was more than 128 mg/L.
Same read-out and setting: the same measure for `C=C1C(=O)O[C@H](c2ccc(O)cc2)[C@@H]1c1ccc(C#N)cc1` [Compound 4]: 256 mg/L (≈ 879 µM).
Still for that read-out and setting: with `C=C1C(=O)OC(C2CCCCC2)C1c1ccccc1` (stereo not drawn) [Compound 181] the figure was more than 64 mg/L.
Regarding `O=C1O[C@H](c2ccc3ccccc3c2)CC1CN1CCCCC1` (stereo partly drawn) [Compound 31], the MIC was more than 128 mg/L.
Still for that read-out and setting: with `C=C1C(=O)O[C@H](c2ccc(OC)cc2)[C@@H]1C` [Compound 117] the figure was more than 128 mg/L; with `C=C1C(=O)O[C@H](c2ccccc2)[C@@H]1c1ccc(C)cc1` [Compound 64], 32 mg/L (≈ 121 µM); with `COc1cc([C@H]2OC(=O)C(CN3CCCCC3)[C@H]2c2ccccc2Br)ccc1OCc1ccccc1` (stereo partly drawn) [Compound 27], more than 128 mg/L.
Still for that read-out and setting: the same measure for `C=C1C(=O)O[C@H](c2ccccc2OC)[C@@H]1c1ccc(C(F)(F)F)cc1` [Compound 77]: 8 mg/L (≈ 23 µM).
Turning to `CCN(CC)C[C@@H]1C(=O)O[C@H](c2ccccc2)[C@@H]1c1ccccc1` [Compound 62], the MIC came out at 16 mg/L (≈ 49.5 µM).
Take `C=C1C(=O)O[C@H](c2cccc(F)c2F)[C@H]1c1ccccc1` [Compound 10]: the MIC came out at 16 mg/L (≈ 55.9 µM).
Still for that read-out and setting: the same measure for `Cc1ccc([C@@H]2C(S3=NCCS3)C(=O)O[C@@H]2C2CCCCC2)cc1` (stereo partly drawn) [Compound 91]: more than 128 mg/L; for `C=C1C(=O)O[C@H](c2ccc(N(C)C)cc2)[C@@H]1c1ccccc1` [Compound 98]: more than 128 mg/L; for `C=C1C(=O)O[C@H](c2ccc(OC)cc2)[C@@H]1c1ccccc1B1OC(C)(C)C(C)(C)O1` [Compound 87]: more than 128 mg/L.
For `O=C1O[C@H](c2ccc3ccccc3c2)[C@H](c2ccc3ccccc3c2)C1CN1CCCCC1` (stereo partly drawn) [Compound 167], the minimal inhibitory concentration (MIC) turned out to be 2 mg/L (≈ 4.59 µM).
On the same count and under the same terms, with `CC(=O)Oc1cc([C@H]2OC(=O)C(CN3CCOCC3)[C@H]2c2ccccc2Br)ccc1OCc1ccccc1` (stereo partly drawn) [Compound 57] the figure was more than 128 mg/L.
Still for that read-out and setting: with `COc1ccc([C@H]2OC(=O)C(CN(C)C)[C@H]2c2ccc(OC)cc2)cc1` (stereo partly drawn) [Compound 82] the figure was more than 128 mg/L.
Still for that read-out and setting: the same measure for `C=C1C(=O)O[C@H](c2ccc(C#N)cc2)[C@@H]1c1ccc(C)cc1` [Compound 37]: 16 mg/L (≈ 55.3 µM); for `C=C1C(=O)O[C@H](c2ccccc2)[C@@H]1C` [Compound 97]: 16 mg/L (≈ 85 µM).
On to `Cc1ccc([C@H]2OC(=O)C(CN(C)C)[C@H]2c2ccc(C#N)cc2)cc1` (stereo partly drawn) [Compound 14], for which the minimum inhibitory concentration (MIC) was more than 128 mg/L.
On the same count and under the same terms, the same measure for `COc1ccc([C@@H]2[C@H](CN(C)C)C(=O)O[C@@H]2c2ccc(C#N)cc2)cc1` [Compound 9]: 128 mg/L (≈ 365 µM).
Turning to `COc1ccc([C@H]2OC(=O)[C@@H](CN(C)C)[C@H]2c2ccc(C)cc2)cc1` [Compound 7], the MIC is 32 mg/L (≈ 94.3 µM).
The same measure, in the same setting: the same measure for `C=C1C(=O)O[C@H](c2cc3ccccc3cn2)[C@@H]1C` [Compound 105]: 16 mg/L (≈ 66.9 µM); for `CCC[C@H]1COC(=O)C1CN1CCCCC1` (stereo partly drawn) [Compound 41]: more than 128 mg/L.

As usually defined, the MIC is the least concentration at which growth counts as inhibited.
